Source: the supplement of paper PMC11061612

What was measured:
[1] = tested on: 697 (B-Lymphoblastic Leukemia); experiment: Bliss excess, mean over the matrix (fraction); higher = more synergy
Summary of the method: (§1)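 Cell lines in DMEM/F12 or RPMI with 10% FBS were plated in 1536-well plates, held 24 hours at 37°C, 5% CO2, then given two-drug dose matrices for 72 hours (DMSO typically 0.2%). Viability was read by CellTiter-Glo 2.0 luminescence and scaled as inhibition from 0 (vehicle wells) to 1 (blank wells). Combination Emax is the second-highest inhibition in the matrix; Bliss excess is observed combination effect minus expected EA + EB − EA·EB, EA and EB being single-agent effects.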

[2] = tested on: CTV-1 (T-Lymphoblastic Leukemia); experiment: as above
Summary of the method: as §1

[3] = tested on: HPAC (Pancreatic Carcinoma); experiment: as above
Summary of the method: as §1

IGR-1 (Melanoma) = experiment: as above
Summary of the method: as §1

[4] = tested on: IHH-4 (Thyroid Gland Carcinoma); experiment: as above
Summary of the method: as §1

[5] = tested on: KATOIII (Gastric Carcinoma); experiment: as above
Summary of the method: as §1

[6] = tested on: NCI-H1781 (Lung Adenocarcinoma); experiment: as above
Summary of the method: as §1

SN12C (Kidney Carcinoma) [7] = experiment: as above
Summary of the method: as §1

[8] = tested on: SNU-C5 (Colorectal Carcinoma); experiment: as above
Summary of the method: as §1

[9] = tested on: SW1783 (Low Grade Glioma); experiment: as above
Summary of the method: as §1

[10] = tested on: TGBC24TKB (Biliary Tract Carcinoma); experiment: as above
Summary of the method: as §1

[11] = tested on: C3A (Hepatocellular Carcinoma); experiment: combination Emax (second highest fraction inhibited in the dose matrix, 72 h); higher = more inhibition; extreme values may be limits of the assay
Summary of the method: as §1

[12] = tested on: DOV13 (Ovarian Carcinoma); experiment: as above
Summary of the method: as §1

[13] = tested on: EM-2 (Chronic Myelogenous Leukemia); experiment: as above
Summary of the method: as §1

[14] = tested on: IHH-4 (Thyroid Gland Carcinoma); experiment: as above
Summary of the method: as §1

[15] = tested on: KM-H2 (Hodgkin's Lymphoma); experiment: as above
Summary of the method: as §1

[16] = tested on: LS-513 (Colorectal Carcinoma); experiment: as above
Summary of the method: as §1

[17] = tested on: MDA-MB-157 (Breast Carcinoma); experiment: as above
Summary of the method: as §1

[18] = tested on: NCI-H1793 (Lung Adenocarcinoma); experiment: as above
Summary of the method: as §1

SN12C (Kidney Carcinoma) [19] = experiment: as above
Summary of the method: as §1
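Wherever Bliss excess, mean over the matrix is given: after 72 h of two-drug dosing.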

| Compound | Bliss excess [1] | Bliss excess [2] | Bliss excess [3] | Bliss excess (IGR-1 (Melanoma)) | Bliss excess [4] | Bliss excess [5] | Bliss excess [6] | Bliss excess (SN12C (Kidney Carcinoma) [7]) | Bliss excess [8] | Bliss excess [9] | Bliss excess [10] | combination Emax [11] | combination Emax [12] | combination Emax [13] | combination Emax [14] | combination Emax [15] | combination Emax [16] | combination Emax [17] | combination Emax [18] | combination Emax (SN12C (Kidney Carcinoma) [19]) |
| --- | --- | --- | --- | --- | --- | --- | --- | --- | --- | --- | --- | --- | --- | --- | --- | --- | --- | --- | --- | --- |
| CC(=O)c1c(C)c2cnc(Nc3ccc(N4CCNCC4)cn3)nc2n(C2CCCC2)c1=O [Palbociclib] + CC1(C)CCC(CN2CCN(c3ccc(C(=O)NS(=O)(=O)c4ccc(NCC5CCOCC5)c([N+](=O)[O-])c4)c(Oc4cnc5[nH]ccc5c4)c3)CC2)=C(c2ccc(Cl)cc2)C1 [Venetoclax] (first compound max 10 µM, 7x7, partner max 1 µM) | -0.0738 | 0.0415 | -0.0619 | -0.0267 | 0.0096 | -0.0606 | -0.045 | -0.0525 | -0.017 | -0.0484 | -0.0121 | 0.447 | 0.752 | 0.287 | 0.393 | 0.383 | 0.648 | 0.115 | 0.197 | 0.0441 |
| COc1cccc(OCCCN)c1-c1cc(Nc2cnc(C#N)cn2)n[nH]1 [Prexasertib] + O=C(c1cc(Cc2n[nH]c(=O)c3ccccc23)ccc1F)N1CCN(C(=O)C2CC2)CC1 [Olaparib] (first compound max 1 µM, 7x7, partner max 10 µM) | 0.0371 | -0.122 | -0.149 | 0.0102 | -0.0827 | -0.149 | -0.0036 | -0.0425 | -0.109 | -0.0344 | -0.0191 | 0.53 | 0.962 | 1 | 0.789 | 0.877 | 0.781 | 0.938 | 0.532 | 0.387 |
| Cc1cc2ncnn2cc1Nc1ncc2c(n1)n(C1CCOCC1)c(=O)n2C [AZD7648] + CN(C)CCCOc1ccc(-c2ccc3ncc4c(c3c2)n(C2CCOCC2)c(=O)n4C)cn1 [AZD0156] (first compound max 10 µM, 7x7, partner max 1 µM) | -0.0136 | 0.0449 | -0.0025 | -0.0223 | 0.0352 | -0.0204 | 0.0151 | -0.0388 | 0.0202 | -0.0078 | 0.009 | 0.251 | 0.325 | 0.349 | 0.329 | 0.158 | 0.247 | 0.209 | 0.333 | 0.262 |
| CS(=O)(=O)CCNCc1ccc(-c2ccc3ncnc(Nc4ccc(OCc5cccc(F)c5)c(Cl)c4)c3c2)o1 [Lapatinib] + C[C@@H](Oc1cc(-c2cnn(C3CCNCC3)c2)cnc1N)c1c(Cl)ccc(F)c1Cl [Crizotinib] (first compound max 10 µM, 7x7, partner max 10 µM) | 0.0166 | 0.036 | 0.0358 | -0.0282 | -0.0634 | 0.0169 | -0.0715 | -0.017 | -0.0301 | -0.0306 | -0.0058 | 0.951 | 0.886 | 1 | 0.907 | 0.931 | 0.966 | 0.493 | 0.793 | 0.216 |
| CC(=O)Nc1cccc(-n2c(=O)n(C3CC3)c(=O)c3c(Nc4ccc(I)cc4F)n(C)c(=O)c(C)c32)c1 [Trametinib] + Cc1nc(-c2cn3c(n2)-c2ccc(-c4cnn(C(C)(C)C(N)=O)c4)cc2OCC3)n(C(C)C)n1 [Taselisib] (first compound max 1 µM, 7x7, partner max 10 µM) | 0.117 | 0.328 | 0.0762 | 0.15 | -0.0242 | 0.0938 | -0.053 | 0.0395 | 0.0951 | -0.027 | 0.196 | 0.903 | 0.76 | 0.935 | 0.78 | 0.227 | 1 | 0.336 | 0.778 | 0.45 |
| Cc1c2c(nn1C)CSCc1cc(n(C)n1)CSc1cc(c3ccccc3c1)OCCCc1c(C(=O)O)n(C)c3c-2c(Cl)ccc13 [AZD5991] + CN(C)CCCOc1ccc(-c2ccc3ncc4c(c3c2)n(C2CCOCC2)c(=O)n4C)cn1 [AZD0156] (first compound max 1 µM, 7x7, partner max 1 µM) | -0.0468 | 0.0012 | 0.0384 | -0.0219 | 0.0541 | -0.0068 | -0.0155 | -0.0161 | 0.0157 | -0.0074 | -0.0044 | 0.198 | 0.324 | 0.394 | 0.265 | 0.201 | 0.275 | 0.69 | 0.302 | 0.222 |
| C=CCn1c(=O)c2cnc(Nc3ccc(N4CCN(C)CC4)cc3)nc2n1-c1cccc(C(C)(C)O)n1 [AZD1775] + O=C(c1cc(Cc2n[nH]c(=O)c3ccccc23)ccc1F)N1CCN(C(=O)C2CC2)CC1 [Olaparib] (first compound max 1 µM, partner max 10 µM) | 0.0782 | -0.0239 | 0.0077 | 0.0054 | 0.0194 | -0.0227 | -0.0451 | -0.0136 | -0.0485 | -0.0028 | -0.0499 | 0.55 | 0.802 | 0.938 | 0.695 | 0.961 | 0.827 | 0.723 | 0.379 | 0.335 |
| NC1(C(=O)N[C@@H](CCO)c2ccc(Cl)cc2)CCN(c2ncnc3[nH]ccc23)CC1 [Capivasertib] + CCN(CCO)CCCOc1ccc2c(Nc3cc(CC(=O)Nc4cccc(F)c4)[nH]n3)ncnc2c1 [AZD2811] (first compound max 10 µM, 7x7, partner max 1 µM) | -0.0593 | 0.0423 | -0.049 | 0.0077 | 0.0289 | -0.0213 | -0.0433 | -0.0536 | -0.0571 | -0.0236 | 0.0111 | 0.307 | 0.544 | 0.877 | 0.618 | 0.362 | 0.532 | 0.276 | 0.289 | 0.27 |
| NC1(C(=O)N[C@@H](CCO)c2ccc(Cl)cc2)CCN(c2ncnc3[nH]ccc23)CC1 [Capivasertib] + Cn1cnc2c(F)c(Nc3ccc(Br)cc3Cl)c(C(=O)NOCCO)cc21 [Selumetinib] (first compound max 10 µM, 7x7, partner max 10 µM) | -0.165 | 0.106 | 0.0152 | 0.103 | -0.0165 | 0.0291 | 0.105 | 0.0041 | 0.0154 | -0.0097 | 0.132 | 0.603 | 0.371 | 0.771 | 0.607 | 0.292 | 0.867 | 0.292 | 0.39 | 0.352 |
| CN(CCO)CC[C@H](CSc1ccccc1)Nc1ccc(S(=O)(=O)NC(=O)c2ccc(N3CCC([C@@H](O)c4ccccc4-c4ccc(Cl)cc4)CC3)cc2)cc1S(=O)(=O)C(F)(F)F [AZD4320] + CN(C)CCCOc1ccc(-c2ccc3ncc4c(c3c2)n(C2CCOCC2)c(=O)n4C)cn1 [AZD0156] (first compound max 1 µM, 7x7, partner max 1 µM) | -0.0116 | -0.0055 | -0.0709 | -0.0149 | -0.022 | -0.034 | -0.0694 | -0.0633 | 0.0125 | -0.0298 | 0.0025 | 0.248 | 0.731 | 0.968 | 0.224 | 0.155 | 0.2 | 0.0946 | 0.253 | 0.169 |
| CC1(C)CCC(CN2CCN(c3ccc(C(=O)NS(=O)(=O)c4ccc(NCC5CCOCC5)c([N+](=O)[O-])c4)c(Oc4cnc5[nH]ccc5c4)c3)CC2)=C(c2ccc(Cl)cc2)C1 [Venetoclax] + CCN(CCO)CCCOc1ccc2c(Nc3cc(CC(=O)Nc4cccc(F)c4)[nH]n3)ncnc2c1 [AZD2811] (first compound max 1 µM, 7x7, partner max 1 µM) | 0.0078 | -0.0281 | -0.0275 | 0.0261 | -0.0288 | -0.0226 | 0.0061 | -0.0267 | 0.0063 | -0.0192 | 0.005 | 0.228 | 0.523 | 0.864 | 0.389 | 0.305 | 0.399 | 0.56 | 0.234 | 0.187 |
| COc1cccc2c1C(=O)c1c(O)c3c(c(O)c1C2=O)C[C@@](O)(C(=O)CO)C[C@@H]3O[C@H]1C[C@H](N)[C@H](O)[C@H](C)O1 [Doxorubicin] + Cc1cc2ncnn2cc1Nc1ncc2c(n1)n(C1CCOCC1)c(=O)n2C [AZD7648] (first compound max 1 µM, 7x7, partner max 10 µM) | 0.101 | 0.119 | 0.0275 | 0.0132 | 0.109 | -0.0354 | 0.0578 | 0.0191 | 0.0378 | 0.0262 | -0.002 | 0.485 | 0.914 | 0.978 | 0.951 | 0.791 | 0.617 | 0.805 | 0.378 | 0.642 |
